From paper PMC9541495, “Understanding the interaction of 14‐3‐3 proteins with hDMX and hDM2: a structural and biophysical study” (The Febs Journal, 2022)
Where a SMILES comes first, the peptide text is derived from it. [ ]: non-standard residue; d: D form. The star is where a group is joined. 5FAM = O=C1OC2(c3ccc(O)cc3Oc3cc(O)ccc32)c2ccc(C(=O)*)cc21; pS = N[C@@H](COP(=O)(O)O)C(=O)O; Ahx = NCCCCCC(=O)O

How the values were obtained:
Assay type in all cases: binding
14‐3‐3 ε = biological target: T1, 14‐3‐3 ε (Homo sapiens, UniProt P62258); assay: Fluorescence anisotropy direct titration, 14‐3‐3ε; settings: FA direct titration; FAM‐Ahx tracer peptide 50 nM; HEPES/NaCl/Tween 20/BSA pH 7.4; 1:1 fit; n = 3; read-out: K d, 14‐3‐3 ε
T1 construct: full‐length proteins were concentrated by centrifugation, rebuffered in HEPES buffer; made in house; host or cells: E. coli BL21(DE3)
T1 sequence (P62258 1-255): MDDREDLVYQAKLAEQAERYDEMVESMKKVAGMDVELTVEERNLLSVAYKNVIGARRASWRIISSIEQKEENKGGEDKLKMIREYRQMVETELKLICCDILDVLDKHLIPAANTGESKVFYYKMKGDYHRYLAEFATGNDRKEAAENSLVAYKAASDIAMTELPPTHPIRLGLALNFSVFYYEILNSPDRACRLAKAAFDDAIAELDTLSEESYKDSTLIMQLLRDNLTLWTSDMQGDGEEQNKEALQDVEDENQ
From the text: (§1) 14‐3‐3 proteins were titrated against a constant concentration of the tracer resulting in an increase of anisotropy upon engaging 14‐3‐3 proteins (Fig. 2A–C for 14‐3‐3 binding hDMX sequences and Figs S4–S6, for 14‐3‐3 binding hDM2 sequences, non‐binding sequence, and unphosphorylated controls). A noteworthy feature of the data is that different maximum anisotropy levels were observed between hDMX or hDM2 peptides and 14‐3‐3 isoforms, indicating different diffusion properties of the fluorophore when bound to the different 14‐3‐3 isoforms. […]
(§2) […]
(§3) All assays were performed in 384 well plates (each experiment was run in triplicates) and data were collected by Perkin Elmer EnVision […] plate reader with excitation at 480 nm (30 nm bandwidth), polarised dichroic mirror at 505 nm and emission at 535 nm (40 nm bandwidth, S and P polarised). […] A ½ fold dilution series was performed in the titration, with plates read after 30 min, 4 h and 20–24 h. […] Total intensity I and anisotropy r were calculated using Equations 1 and 2 for each well. […]

14‐3‐3 σ = biological target: T2, 14‐3‐3 σ (Homo sapiens, UniProt P31947); assay: Fluorescence anisotropy direct titration, 14‐3‐3σ; settings: FA direct titration; FAM‐Ahx tracer peptide 50 nM; HEPES/NaCl/Tween 20/BSA pH 7.4; 1:1 fit; n = 3; read-out: K d, 14‐3‐3 σ
T2 construct: full‐length proteins were concentrated by centrifugation, rebuffered in HEPES buffer; made in house; host or cells: E. coli BL21(DE3)
T2 sequence (P31947 1-248): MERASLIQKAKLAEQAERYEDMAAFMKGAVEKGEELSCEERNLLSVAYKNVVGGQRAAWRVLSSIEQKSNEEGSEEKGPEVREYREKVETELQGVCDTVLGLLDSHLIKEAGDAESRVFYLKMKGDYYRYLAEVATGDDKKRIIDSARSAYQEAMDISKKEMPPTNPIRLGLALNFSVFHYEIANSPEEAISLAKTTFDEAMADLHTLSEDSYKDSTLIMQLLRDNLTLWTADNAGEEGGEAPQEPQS
From the text: as §1, §2, §3

14‐3‐3 τ = biological target: T3, 14‐3‐3 τ (Homo sapiens, UniProt P27348); assay: Fluorescence anisotropy direct titration, 14‐3‐3τ; settings: FA direct titration; FAM‐Ahx tracer peptide 50 nM; HEPES/NaCl/Tween 20/BSA pH 7.4; 1:1 fit; n = 3; read-out: K d, 14‐3‐3 τ
T3 construct: full‐length proteins were concentrated by centrifugation, rebuffered in HEPES buffer; made in house; host or cells: E. coli BL21(DE3)
T3 sequence (P27348 1-245): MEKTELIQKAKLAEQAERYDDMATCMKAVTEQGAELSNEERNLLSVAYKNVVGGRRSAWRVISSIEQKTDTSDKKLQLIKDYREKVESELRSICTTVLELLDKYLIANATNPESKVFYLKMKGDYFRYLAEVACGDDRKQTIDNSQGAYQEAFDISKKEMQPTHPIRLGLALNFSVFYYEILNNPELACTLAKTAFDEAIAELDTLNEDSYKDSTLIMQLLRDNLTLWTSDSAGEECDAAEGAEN
From the text: as §1, §2, §3

Kd (14‐3‐3 ε): > 260 µM | Kd (14‐3‐3 σ): > 170 µM | Kd (14‐3‐3 τ): > 250 µM
SMILES: CC[C@H](C)[C@H](NC(=O)[C@H](CO)NC(=O)[C@H](CC(=O)O)NC(=O)[C@H](COP(=O)(O)O)NC(=O)[C@H](CCCCN)NC(=O)[C@H](Cc1c[nH]cn1)NC(=O)[C@H](CCCNC(=N)N)NC(=O)[C@H](CCCCN)NC(=O)[C@H](CCCNC(=N)N)NC(=O)[C@H](CCC(N)=O)NC(=O)CCCCCNC(=O)c1ccc2c(c1)C(=O)OC21c2ccc(O)cc2Oc2cc(O)ccc21)C(=O)N[C@@H](CO)C(=O)N[C@@H](CC(C)C)C(=O)N[C@@H](CO)C(N)=O [hDM2_180‐192 ^pSer186] ({5FAM-Ahx}-QRKRHK[pS]DSISLS-NH2)
